Like-named read-outs stand apart in the source and are kept apart here.
Test system: ring stage parasites
Assay: Parasite growth potency assay, 72 hours, LDH readout
Assay type: cell-based
Settings: parasite growth measured by LDH assay after 72 hours at 37° C., 0.7% rings, 2% haematocrit, read-out: EC50
Description: The parasite stock was maintained at 4% haematocrit in RPMI-Hepes media buffered with sodium bicarbonate and supplemented with 5% heat inactivated human serum and 0.5% albumax.
On the day of assay set up, a blood smear of the parasite culture was Giemsa stained and counted. The parasitemia was adjusted to 0.7% rings and the haematocrit was diluted to 2% in RPMI-Hepes media buffered with sodium bicarbonate and supplemented with 5% heat inactivated human serum and 0.5% albumax. 30 ul of diluted parasites are then added into 10 ul of media+compound in pre-prepared Greiner TC assay plates. Parasite assay plates were placed in gassed humidified boxes in single layer and allowed to incubate at 37° C. for 72 hours. After 72 hours growth, assay plates are sealed with parafilm and frozen flat, in single file at −80° C. overnight. On the following day, assay plates are allowed to thaw at room temperature for 4 hours to which an LDH assay is performed to measure parasite growth.

| Structure (SMILES) | EC50 (72 h) [nM] | also measured |
| --- | --- | --- |
| CCC1(CC)CC(=O)N(Cc2cc(C(=O)N[C@H]3CCOc4ccccc43)ccn2)C(=N)N1 [Example 23, [1-[[4-[[(4S)-chroman-4-yl]carbamoyl]-2-pyridyl]methyl]-4,4-diethyl-6-oxo-hexahydropyrimidin-2-ylidene]ammonium; 2,2,2-trifluoroacetate] | 11.5 | – |
| CCC1(CC)NC(=N)N(Cc2cc(F)cc(C(=O)N[C@@H]3c4ccccc4C[C@H]3O)c2)C(=O)C1C (stereo partly drawn) [Example 48, [4,4-diethyl-1-[[3-fluoro-5-[[(1R,2R)-2-hydroxyindan-1-yl]carbamoyl]phenyl]methyl]-5-methyl-6-oxo-hexahydropyrimidin-2-ylidene]ammonium; 2,2,2-trifluoroacetate] | 5.2 | – |
| CCC[C@@H](c1cccc(C(=O)NC2CC(C)(C)Oc3ccccc32)c1)N1C(=N)NC(CC)(CC)CC1=O (stereo in doubt) [Example 62B, [1-[1-[3-[(2,2-dimethylchroman-4-yl)carbamoyl]phenyl]butyl]-4,4-diethyl-6-oxo-hexahydropyrimidin-2-ylidene]ammonium; 2,2,2-trifluoroacetate] | 7.5 | – |
| CCC[C@H](c1cccc(C(=O)N[C@@H]2c3ccccc3OCC2O)c1)N1C(=N)NC(CC)(CC)CC1=O (single isomer, unassigned) [Example 127B] | 1.2 | – |
| CCC1(CC)CC(=O)N([C@H](CCOC)c2cccc(C(=O)N[C@@H]3c4ccccc4C[C@@H]3O)c2)C(=N)N1 [Example 202, [4,4-diethyl-1-[(1R)-1-[3-[[(1R,2S)-2-hydroxyindan-1-yl]carbamoyl]phenyl]-3-methoxy-propyl]-6-oxo-hexahydropyrimidin-2-ylidene]ammonium; 2,2,2-trifluoroacetate] | 5.3 | – |
| CCC1(CC)CC(=O)N([C@H](CCOC)c2cc(F)cc(C(=O)N[C@H]3c4ccccc4OC(C)(C)[C@@H]3O)c2)C(=N)N1 (stereo in doubt) [Example 129B, [4,4-diethyl-1-[1-[3-fluoro-5-[(3-hydroxy-2,2-dimethyl-chroman-4-yl)carbamoyl]phenyl]-3-methoxy-propyl]-6-oxo-hexahydropyrimidin-2-ylidene]ammonium; 2,2,2-trifluoroacetate] | 87 | – |
| CC(C)[C@]1(C)CC(=O)N(Cc2cc(F)cc(C(=O)N[C@@H]3c4ccccc4C[C@H]3O)c2)C(=N)N1 [Example 30, [(4S)-1-[[3-fluoro-5-[[(1R,2R)-2-hydroxyindan-1-yl]carbamoyl]phenyl]methyl]-4-isopropyl-4-methyl-6-oxo-hexahydropyrimidin-2-ylidene]ammonium; 2,2,2-trifluoroacetate] | 3.1 | – |
| CCC1(CC)CC(=O)N(Cc2cccc(C(=O)N[C@H]3CC(C)(C)Oc4cc(F)ccc43)c2)C(=N)N1 (stereo in doubt) [Example 93, [4,4-diethyl-1-[[3-[(7-fluoro-2,2-dimethyl-chroman-4-yl)carbamoyl]phenyl]methyl]-6-oxo-hexahydropyrimidin-2-ylidene]ammonium; 2,2,2-trifluoroacetate] | 1.8 | – |
| CCC1(COC)CC(=O)N(Cc2cccc(C(=O)N[C@H]3CC(C)(C)Oc4ccccc43)c2)C(=N)N1 (stereo partly drawn) [Example 98A, [1-[[3-[[(4S)-2,2-dimethylchroman-4-yl]carbamoyl]phenyl]methyl]-4-ethyl-4-(methoxymethyl)-6-oxo-hexahydropyrimidin-2-ylidene]ammonium; 2,2,2-trifluoroacetate] | 15.5 | – |
| CCC[C@H](c1cccc(C(=O)N[C@@H]2CC3(CCC3)Oc3ccccc32)c1)N1C(=N)NC(CC)(CC)CC1=O (stereo in doubt) [Example 212A, [4,4-diethyl-6-oxo-1-[(1R)-1-[3-[[(4S)-spiro[chromane-2,1′-cyclobutane]-4-yl]carbamoyl]phenyl]butyl]hexahydropyrimidin-2-ylidene]ammonium; 2,2,2-trifluoroacetate] | 8 | – |
| CCC12CCCCCCC3COc4ccccc4C3NC(=O)c3cccc(c3)CN(C(=N)N1)C(=O)C2 (single isomer, unassigned) [Example 120B, (26-ethyl-8,29-dioxo-17-oxa-1,9,27-triazapentacyclo[24.2.2.13,7.010,19. 011,16]hentriaconta-3,5,7(31),11(16),12,14-hexaen-28-ylidene)ammonium; 2,2,2-trifluoroacetate] | – | EC50: 35.5 nM |
| CCC1(CC)CC(=O)N(Cc2cccc(C(=O)N[C@@H]3CC(C)(C)Oc4cccc(F)c43)c2)C(=N)N1 (stereo in doubt) [Example 94B, [4,4-diethyl-1-[[3-[(5-fluoro-2,2-dimethyl-chroman-4-yl)carbamoyl]phenyl]methyl]-6-oxo-hexahydropyrimidin-2-ylidene]ammonium; 2,2,2-trifluoroacetate] | 72.5 | – |
| CCC1(CC)CC(=O)N(Cc2cccc(C(=O)N[C@H]3CC(c4ccccc4)Oc4ccccc43)c2)C(=N)N1 (stereo in doubt) [Example 218B, [4,4-diethyl-6-oxo-1-[[3-[(2-phenylchroman-4-yl)carbamoyl]phenyl]methyl]hexa-hydropyrimidin-2-ylidene]ammonium; 2,2,2-trifluoroacetate] | – | EC50 (trifluoroacetate): 1.1 nM |
| CCC1(CC)CC(=O)N([C@H](c2cccnc2)c2cccc(C(=O)N[C@H]3CC(C)(C)Oc4ccccc43)c2)C(=N)N1 [Example 100A, [1-[[3-[[(4S)-2,2-dimethylchroman-4-yl]carbamoyl]phenyl]-pyridin-1-ium-3-yl-methyl]-4,4-diethyl-6-oxo-hexahydropyrimidin-2-ylidene]ammonium; 2,2,2-trifluoroacetate] | 0.4 | – |
| CCC1(CC)CC(=O)N([C@H](CCOC)c2cccc(C(=O)N[C@@H]3c4ccccc4OCC3(C)O)c2)C(=N)N1 (stereo in doubt) [Example 143A, 3-[1-(4,4-diethyl-2-imino-6-oxo-hexahydropyrimidin-1-yl)-3-methoxy-propyl]-N-(3-hydroxy-3-methyl-chroman-4-yl)benzamide] | 2.2 | – |
| CCC1(CC)CC(=O)N([C@H](CCOC)c2cccc(C(=O)NC3c4ccccc4CC3(C)O)c2)C(=N)N1 (stereo in doubt) [Example 142A, 3-[1-(4,4-diethyl-2-imino-6-oxo-hexahydropyrimidin-1-yl)-3-methoxy-propyl]-N-(2-hydroxy-2-methyl-indan-1-yl)benzamide] | 2.1 | – |
| CCC1(CC)CC(=O)N(Cc2cccc(C(=O)N[C@H]3CCc4ccccc43)c2)C(=N)N1 [Example 77, [4,4-diethyl-1-[[3-[[(1S)-indan-1-yl]carbamoyl]phenyl]methyl]-6-oxo-hexahydropyrimidin-2-ylidene]ammonium; 2,2,2-trifluoroacetate] | 14.7 | – |
| CC[C@H](c1cccc(C(=O)N[C@@H]2c3ccccc3OC[C@]2(C)O)c1)N1C(=N)NC(CC)(CC)CC1=O [Example 206B, [4,4-diethyl-1-[1-[3-[[(3R,4R)-3-hydroxy-3-methyl-chroman-4-yl]carbamoyl]phenyl]propyl]-6-oxo-hexahydropyrimidin-2-ylidene]ammonium; 2,2,2-trifluoroacetate] | – | EC50 (trifluoroacetate): 0.7 nM |
| CC[C@]1(CC(C)C)CC(=O)N(Cc2cc(F)cc(C(=O)N[C@@H]3c4ccccc4C[C@H]3O)c2)C(=N)N1 [Example 47, [(4S)-4-ethyl-1-[[3-fluoro-5-[[(1R,2R)-2-hydroxyindan-1-yl]carbamoyl]phenyl]methyl]-4-isobutyl-6-oxo-hexahydropyrimidin-2-ylidene]ammonium; 2,2,2-trifluoroacetate] | 6.5 | – |
| COCC[C@H](c1cc(F)cc(C(=O)N[C@H]2CC(C)(C)Oc3ccccc32)c1)N1C(=N)NC(C)(C)CC1=O [Example 173, [1-[1-[3-[[(4S)-2,2-dimethylchroman-4-yl]carbamoyl]-5-fluoro-phenyl]-3-methoxy-propyl]-4,4-dimethyl-6-oxo-hexahydropyrimidin-2-ylidene]ammonium; 2,2,2-trifluoroacetate] | 1 | – |
| CCC1(CC)CC(=O)N([C@H](c2ccc(S(C)(=O)=O)cc2)c2cccc(C(=O)N[C@@H]3c4ccccc4C[C@H]3O)c2)C(=N)N1 [Example 116, [4,4-diethyl-1-[[3-[[(1R,2R)-2-hydroxyindan-1-yl]carbamoyl]phenyl]-(4-methylsulfonylphenyl)methyl]-6-oxo-hexahydropyrimidin-2-ylidene]ammonium; chloride] | 6.8 | – |
| C#CCC[C@H](c1cccc(C(=O)N[C@H]2CC(C)(C)Oc3ccccc32)c1)N1C(=N)N[C@](C)(C(C)C)CC1=O [Example 108A, [(4S)-1-[1-[3-[[(4S)-2,2-dimethylchroman-4-yl]carbamoyl]phenyl]pent-4-ynyl]-4-isopropyl-4-methyl-6-oxo-hexahydropyrimidin-2-ylidene]ammonium; 2,2,2-trifluoroacetate] | 0.4 | – |
| C#CCC[C@H](c1cccc(C(=O)NC2CC3(CCC3)Oc3ccccc32)c1)N1C(=N)NC(CC)(CC)CC1=O (stereo in doubt) [Example 211B, [4,4-diethyl-6-oxo-1-[(1R)-1-[3-[[(4R)-spiro[chromane-2,1′-cyclobutane]-4-yl]carbamoyl]phenyl]pent-4-ynyl]hexahydropyrimidin-2-ylidene]ammonium; 2,2,2-trifluoroacetate] | – | EC50 (trifluoroacetate): 0.5 nM |
| CCC1(CC)CC(=O)N([C@H](CCN2CCCC2)c2cccc(C(=O)N[C@H]3CCOc4ccccc43)c2)C(=N)N1 [Example 58, [1-[1-[3-[[(4S)-chroman-4-yl]carbamoyl]phenyl]-3-pyrrolidin-1-ium-1-yl-propyl]-4,4-diethyl-6-oxo-hexahydropyrimidin-2-ylidene]ammonium; 2,2,2-trifluoroacetate] | 1.3 | – |

Reference: US12629374B2, “Antimalarial agents” (Merck Sharp & Dohme LLC, priority 2020, dated 2026)
